Measurements as given in publication PMC10669340, “Bioactive Compounds from an Endophytic Pezicula sp. Showing Antagonistic Effects against the Ash Dieback Pathogen” (Biomolecules, 2023).
Converted amounts (≈) assume the structure as drawn. Read-outs that look alike come from different tables or passages of the source.

Experiments:
[1] = test system: Acinetobacter baumannii DSM 30008; assay: Antimicrobial serial dilution assay (MIC); format: cell-based; conditions: n.i.: no inhibition
Procedure: (§1) The antimicrobial activity (minimum inhibitory concentration, MIC) of the compounds was determined against Acinetobacter baumannii DSM 30008, Bacillus subtilis DSM 10, Chromobacterium violaceum DSM 30191, Escherichia coli DSM 1116, Mycobacterium smegmatis ATCC 700084, Pseudomonas aeruginosa PA14, Staphylococcus aureus DSM 346, Candida albicans DSM1665, Mucor hiemalis DSM 2656, Pichia anomala DSM 6766, Rhodotorula glutinis DSM 10134 and Schizosaccharomyces pombe DSM 70572 in a serial dilution assay as previously described.

Bacillus subtilis DSM 10 = assay: Antimicrobial serial dilution assay (MIC); format: cell-based; conditions: Bacillus subtilis DSM 10, n.i.: no inhibition; for MIC: DSM10, read-out: Minimum inhibitory concentration (MIC)
Procedure: as §1

Candida albicans DSM1665 = assay: Antimicrobial serial dilution assay (MIC); format: cell-based; conditions: n.i.: no inhibition
Procedure: as §1

[2] = test system: Chromobacterium violaceum DSM 30191; assay: Antimicrobial serial dilution assay (MIC); format: cell-based; conditions: n.i.: no inhibition
Procedure: as §1

[3] = test system: Escherichia coli DSM 1116; assay: Antimicrobial serial dilution assay (MIC); format: cell-based; conditions: n.i.: no inhibition
Procedure: as §1

Mucor hiemalis DSM 2656 = assay: Antimicrobial serial dilution assay (MIC); format: cell-based; conditions: Mucor hiemalis DSM 2656, n.i.: no inhibition; for MIC: DSM2656, read-out: Minimum inhibitory concentration (MIC)
Procedure: as §1

[4] = test system: Mycobacterium smegmatis ATCC 700084; assay: Antimicrobial serial dilution assay (MIC); format: cell-based; conditions: Mycobacterium smegmatis ATCC 700084; n.i.: no inhibition
Procedure: as §1

Pichia anomala DSM 6766 = assay: Antimicrobial serial dilution assay (MIC); format: cell-based; conditions: Pichia anomala DSM 6766; n.i.: no inhibition
Procedure: as §1

[5] = test system: Pseudomonas aeruginosa PA14; assay: Antimicrobial serial dilution assay (MIC); format: cell-based; conditions: n.i.: no inhibition
Procedure: as §1

[6] = test system: Rhodotorula glutinis DSM 10134; assay: Antimicrobial serial dilution assay (MIC); format: cell-based; conditions: Rhodotorula glutinis DSM 10134, n.i.: no inhibition
Procedure: as §1

[7] = test system: Schizosaccharomyces pombe DSM 70572; assay: Antimicrobial serial dilution assay (MIC); format: cell-based; conditions: Schizosaccharomyces pombe DSM 70572; n.i.: no inhibition
Procedure: as §1

[8] = test system: Staphylococcus aureus DSM 346; assay: Antimicrobial serial dilution assay (MIC); format: cell-based; conditions: Staphylococcus aureus DSM 346, n.i.: no inhibition; for MIC: DSM346, read-out: Minimum inhibitory concentration (MIC)
Procedure: as §1

MTT cytotoxicity assay = format: cell-based; conditions: read-out: Cytotoxic activity (IC50)
Procedure: (§2) The in vitro cytotoxicity assay was performed using the MTT (3-(4,5-dimethylthiayol-2-yl)-2,5-diphenyltetrazolium bromide) test in 96-well microtiter plates as previously described.

[9] = test system: panel of bacteria and fungi; assay: Antimicrobial serial dilution assay, whole panel (summary statements); format: cell-based
Procedure: as §1

[10] = test system: panel of mammalian cell lines; assay: MTT cytotoxicity assay, panel (summary statements); format: cell-based; conditions: 4–6 only KB3.1 and L929
Procedure: as §2

[11] = test system: H. fraxineus (isolate RH02-T6-B4-2); assay: Agar disc diffusion assay; format: cell-based, Hymenoscyphus fraxineus; conditions: 6 mm disc, 7 days, 21 °C, n.i.: no inhibition
Procedure: The antifungal activity of the isolated compounds against H. fraxineus was assessed by the disc diffusion method using 9 cm diameter petri dishes as previously described […] Three sterile filter paper discs per plate were gently placed on dried potato–dextrose agar. The fungicide nystatin was applied as the positive control (20 and 50 µg/paper disc) and methanol as the negative control (10 µL/paper disc). The test plates were incubated at 21 °C for 7 days, the inhibition diameters were measured, and the activity was evaluated compared to nystatin.
Figure S44: Agar disc (6 mm diam.) diffusion assay of compound CJ-17,572 (1) against H. fraxineus RH02-T6-B4-2, grown in 9-cm petri dishes on agar-based PD
medium with H. fraxineus, N - positive control nystatin, M - negative control methanol, CJ – 1.
Table S1. Antifungal activity of the compounds 1-6. n.i.: no inhibition, n.t.: not tested.
Compounds Amount ( µg/paper disc)
Peziculastatin n.t. n.i. 8 mm
Mycorrhizin A 19 mm 31 mm n.t.
Cryptosporioptide A n.t. n.i. n.i.
Cryptosporioptide B n.t. n.i. 8 mm
Cryptosporioptide C n.t. n.i. n.i.
Nystatin 21 mm 24 mm n.t.

[12] = test system: Staphylococcus aureus DSM 1104 preformed biofilm; assay: Biofilm assay, dispersal of preformed biofilm; format: cell-based; design: Antibiofilm activity, preformed S. aureus: unit not given here; conditions: for Antibiofilm activity, preformed S. aureus: (/) no activity
Procedure: Staphylococcus aureus DSM 1104 from −20 °C stock was cultured in 25 mL CASO (Casein–Peptone Soymeal–Peptone; peptone from casein 15 g/L, peptone from soy flour 5 g/L, NaCl 5 g/L, pH 7.3) medium at 37 °C at 100 rpm in 250 mL for 20 h. The precultured suspension of S. aureus was adjusted so that its OD600 matched the turbidity of a 0.001 McFarland standard. S. aureus was incubated in 96-well tissue microtiter plates (TPP tissue culture ref.no 92196, Switzerland) for 24 h at 150 rpm in […] CASO medium with 4% glucose broth. The supernatant was removed from the wells and 150 μL of the respective media (fresh) was added to the wells, together with the serially diluted compounds (250–2 μg/mL). The plates were incubated for a further 24 h at 37 °C. Staining of the biofilms was carried out as described previously. Standard deviation (SD) of two repeats with duplicates each were 10% or less. Methanol (2.5%) and microporenic acid A (250–2 μg/mL) were used as solvent and positive controls. Error bars indicate SD with duplicates in two biological repeats.

[13] = test system: Candida albicans DSM 11225 biofilm; assay: Biofilm assay, inhibition of biofilm formation; format: cell-based; conditions: (/) no activity
Procedure: The stock of fungal pathogen Candida albicans DSM 11225 from −20 °C was cultured in 25 mL YPD (Yeast extract Peptone Dextrose; dextrose 20 g/L, peptone 20 g/L, yeast extract 10 g/L) medium in a 250 mL flask at 30 °C with shaking 100 rpm for 18 h. Turbidity of the broth was measured and diluted to match the turbidity of a 0.05 McFarland standard in RPMI 1640 medium (Gibco, New York, NY, USA, Thermo Fisher Scientific). Afterwards, 150 μL of the fungal dispersion was added into each well of a 96-well microtiter plate (Falcon no. 351172, Thermo Fisher Scientific) and further incubated for 90 min. The supernatant was removed, and the plate was washed once by using PBS buffer. Compounds were serially diluted in 150 μL in fresh medium to concentrations of 250–2 μg/mL. Staining and analysis were conducted as previously described. Methanol (2.5%) and farnesol (250–2 μg/mL) were used as solvent and positive controls. Error bars indicate SD with duplicates in two biological repeats.

## COC1=C(C(=O)[C@@]2(C)[C@@H](C)C=C[C@H]3C[C@@H](C)CC[C@@H]32)C(=O)N(C)[C@H]1[C@@H](C)O [Compound 7, 4′-methyl-CJ-17,572]
[1]
  Minimum inhibitory concentration (MIC): n.i.
Bacillus subtilis DSM 10
  MIC: 8.3 µg/mL (≈ 22.1 µM)
Candida albicans DSM1665
  Minimum inhibitory concentration (MIC): n.i.
[2]
  Minimum inhibitory concentration (MIC): n.i.
[3]
  Minimum inhibitory concentration (MIC): n.i.
Mucor hiemalis DSM 2656
  MIC: 66.6 µg/mL (≈ 177 µM)
[4]
  Minimum inhibitory concentration (MIC): n.i.
Pichia anomala DSM 6766
  Minimum inhibitory concentration (MIC): n.i.
[5]
  Minimum inhibitory concentration (MIC): n.i.
[6]
  Minimum inhibitory concentration (MIC): n.i.
[7]
  Minimum inhibitory concentration (MIC): n.i.
[8]
  MIC: 33.3 µg/mL (≈ 88.7 µM)
MTT cytotoxicity assay; human, A431
  IC50: 24 µM
MTT cytotoxicity assay; human, A549
  IC50: 10 µM
MTT cytotoxicity assay; human, KB3.1, n.c.: no cytotoxicity
  IC50: 6.4 µM
MTT cytotoxicity assay; human, MCF-7
  IC50: 9.6 µM
MTT cytotoxicity assay; human, PC-3
  IC50: 9.1 µM
MTT cytotoxicity assay; human, SKOV-3
  IC50: 14 µM
MTT cytotoxicity assay; mouse, L929, n.c.: no cytotoxicity
  IC50: 32 µM
[9]
  antimicrobial activity against the tested microorganisms (in words): weak antimicrobial activity
[10]
  cytotoxicity against the tested cell lines (in words): active against all the tested cell lines

## CCCCCCC(C)/C=C/C=C/C=C/C(=O)N[C@H](C(=O)O)[C@H](O)c1ccccc1O (relative stereo) [Compound 2, peziculastatin]
[1]
  Minimum inhibitory concentration (MIC): n.i.
Bacillus subtilis DSM 10
  MIC: 33.3 µg/mL (≈ 80.1 µM)
Candida albicans DSM1665
  Minimum inhibitory concentration (MIC): n.i.
[2]
  Minimum inhibitory concentration (MIC): n.i.
[3]
  Minimum inhibitory concentration (MIC): n.i.
Mucor hiemalis DSM 2656
  MIC: 33.3 µg/mL (≈ 80.1 µM)
[4]
  Minimum inhibitory concentration (MIC): n.i.
Pichia anomala DSM 6766
  Minimum inhibitory concentration (MIC): n.i.
[5]
  Minimum inhibitory concentration (MIC): n.i.
[6]; DSM10134, read-out: Minimum inhibitory concentration (MIC)
  MIC: 33.3 µg/mL (≈ 80.1 µM)
[7]
  Minimum inhibitory concentration (MIC): n.i.
[8]
  MIC: 16.6 µg/mL (≈ 39.9 µM)
MTT cytotoxicity assay; human, A431 squamous cell carcinoma cells
  IC50: 53 µM
MTT cytotoxicity assay; human, A549 lung carcinoma cells
  IC50: 41 µM
MTT cytotoxicity assay; human, KB3.1 endocervical adenocarcinoma cells, n.c.: no cytotoxicity
  IC50: 17 µM
MTT cytotoxicity assay; human, MCF-7 breast adenocarcinoma cells
  IC50: 11 µM
MTT cytotoxicity assay; mouse, L929 fibroblast cells, n.c.: no cytotoxicity
  IC50: 53 µM
[11]; 50 µg/paper disc
  Antifungal activity, inhibition diameter: n.i.
[11]; 100 µg/paper disc
  Antifungal activity, inhibition diameter: 8 mm
[9]
  antimicrobial activity against the tested microorganisms (in words): moderate to weak antifungal activity

## CCC(C(=O)O)C(=O)OC1C2(C)Oc3ccc(-c4ccc5c(c4O)C(=O)C4=C(O)C6OC6(C)C(OC(=O)CC(=O)O)C4(C)O5)c(O)c3C(=O)C2=C(O)C2OC21C (stereo not shown) [Compound 5, Cryptosporioptide B]
[1]
  Minimum inhibitory concentration (MIC): n.i.
Bacillus subtilis DSM 10
  Minimum inhibitory concentration (MIC): n.i.
Candida albicans DSM1665
  Minimum inhibitory concentration (MIC): n.i.
[2]
  Minimum inhibitory concentration (MIC): n.i.
[3]
  Minimum inhibitory concentration (MIC): n.i.
Mucor hiemalis DSM 2656
  Minimum inhibitory concentration (MIC): n.i.
[4]
  Minimum inhibitory concentration (MIC): n.i.
Pichia anomala DSM 6766
  Minimum inhibitory concentration (MIC): n.i.
[5]
  Minimum inhibitory concentration (MIC): n.i.
[6]
  Minimum inhibitory concentration (MIC): n.i.
[7]
  Minimum inhibitory concentration (MIC): n.i.
[8]
  Minimum inhibitory concentration (MIC): n.i.
[11]; 50 µg/paper disc
  Antifungal activity, inhibition diameter: n.i.
[11]; 100 µg/paper disc
  Antifungal activity, inhibition diameter: 8 mm
[12]; 7.8 µg/mL
  Antibiofilm activity, preformed S. aureus: 54
[12]; 15.6 µg/mL
  Antibiofilm activity, preformed S. aureus: 75
[12]; 62.5 µg/mL
  Antibiofilm activity, preformed S. aureus: 83
[12]; 125 µg/mL
  Antibiofilm activity, preformed S. aureus: 81
[12]; 250 µg/mL
  Antibiofilm activity, preformed S. aureus: 49
[12]; concentrations between 15.6 µg/mL–125 µg/mL
  efficacy of biofilm eradication, preformed biofilms of S. aureus: 70–80%
[13]; 62.5 µg/mL
  Antibiofilm activity, C. albicans: 49
[13]; 125 µg/mL
  Antibiofilm activity, C. albicans: 50
[13]; 250 µg/mL
  Antibiofilm activity, C. albicans: 74
